According to patent publication US12076368B2, “Treatment of liver, biliary tract and pancreatic disorders” (Novozymes A/S, priority 2016, dated 2024):
One block for each molecule: values may come before it. Positions of bridges follow the written chain, without caps; N, C: chain ends. No end group written: not given here.

Columns and labels:
[1] = tested on: Dextran Sodium Sulphate (DSS) Induced Colitis Model in Mice; experiment: Acute 10-day DSS induced colitis model, hBD-2-albumin fusion N-terminal (Example 8); type: in vivo; settings: fusion iv or sc daily; DEX 1 mg/kg sc OD
Description: “hBD-2-albumin N-terminal” was administered intravenously via the tail vein or subcutaneously with the use of a sterile 25 G needle in a dosing volume of 10 ml/kg body weight. The animals received 1 dose daily for 10 executive days.

C57Bl/6J DIO male mice = experiment: GLP-1 analog (liraglutide) treatment of high fat diet fed DIO mice (Example 5); type: in vivo; settings: 0.2 mg/kg BID subcutaneously, 4 weeks
Description: FIG. 31: Schematic outline of the experimental set up for investigating the effects of a GLP-1 analog (Liraglutid) on mouse gut inflammation and microbiota. At week −40, the C57/BI/6J DIO mice arrived. The mice were fed a high fat diet 60% fat, SSNIFF (Diet #D12492) or purina chow for 38 weeks to achieve an average body weight of 55 gram. From week −2 the mice were single housed. Faecal samples were collected on day −1 and 27 for 16S RNA analysis. Samples from ilium were collected 2 cm from caecum at day 28.
4 weeks old C57Bl/6J DIO male mice were fed a high fat diet (HFD 60% fat, SSNIFF (Diet #D12492)) or purina chow for […]. The HFD fed group had reached an average weight of approximately 55 grams by start of intervention. The mice were group housed 10 per cage until week −2. From week −2 the mice were single housed throughout the study. Feed intake was registered daily just before lights were turned off at 3 pm. Individual mice were subjected to experimental procedures in altered order both group and cage wise. Mice were kept at room temperature under a 12-hour light/dark cycle at SPF standard conditions.
Mice were fed either a high fat diet (HFD) or a low fat (LF) control diet. The HFD contained 2 subgroups; 1 GLP-1 analog and 1 standard HFD without supplementation of GLP-1 analog. The GLP-1 analog liraglutide was dissolved in PBS and 0.1% BSA was added. The GLP-1 analog was administered at 0.2 mg/kg BID subcutaneously.

[2] = tested on: Dextran Sodium Sulphate (DSS) Induced Colitis Model in Mice; experiment: Acute 10-day DSS induced colitis model, hBD-2-albumin fusion C-terminal (Example 9); type: in vivo; settings: Pred 1 mg/kg orally daily
Description: “hBD-2-albumin C-terminal” was administered intravenously via the tail vein or subcutaneously with the use of a sterile 25 G needle in a dosing volume of 10 ml/kg body weight. The animals received 1 dose daily for 10 […] days. The active control Prednisolone (Pred) was given orally by gavage at a dose of 1 mg/kg in a dosing volume of 10 ml/kg body weight OD.

[3] = Pharmacokinetics of hBD-2 and hBD-2-albumin fusions after subcutaneous or intravenous administration (Example 7); type: in vivo, NMRI female mice; settings: hBD-2 1 mg/kg
Description: FIG. 36. Pharmacokinetic data for hBD-2 following subcutaneous (SC) and intravenous (IV) administration of 1 mg/kg respectively. […] The different curves represent different experiments and detection methods (HPLC and ELISA).
FIG. 37. Pharmacokinetic data for “hBD-2-albumin fusion N-terminal” following subcutaneous and intravenous administration of 16.5 mg/kg respectively. […] The results are the mean of 4 mice/sampling time+/−SD.
FIG. 38. Pharmacokinetic data for “hBD-2-albumin fusion C-terminal” following subcutaneous and intravenous administration of 16.5 mg/kg respectively. […] The results are the mean of 4 mice/sampling time+/−SD.
The animals were dosed 10 ml/kg of stock concentration of 1.65 mg/ml according to the individual body weight (300 μL for a 30 gram mouse). First blood sample was taken using a submandibular sampling method and the second following Isoflurane anaesthesia and euthanasia.

[4] = Pharmacokinetics of hBD-2 after single oral gavage (Example 6); type: in vivo, NMRI mice; settings: oral dosing of 4 mg/kg in mice
Description: FIG. 35. Pharmacokinetic data following oral administration of 4 mg/kg hBD-2 to female NMRI mice. […] The results are given as group mean+/−SEM.
21 female NMRI mice were dosed by oral gavage 5 ml/kg using a gavage tube and a 1 ml syringe according to the individual body weight obtained on the day of dosing. Urine was strived sampled at random time points by gently massaging the inguinal area of the abdomen. The first blood sample was taken using a submandibular sampling method. The second blood sample was collected from Isoflurane anaesthetised mice. Intestinal samples were taken after euthanasia. The abdomen of each mouse was opened and three sections of the intestines were sampled.

[5] = degradation by dipeptidyl peptidase-4; cited from earlier work
isolated hepatocytes = settings: Liu et al. (2008); cited from earlier work
[6] = compared to untreated HFD reference group

Molecule: C[C@@H]1C[C@H]2[C@@H]3CCC4=CC(=O)C=C[C@]4(C)[C@@]3(F)[C@@H](O)C[C@]2(C)[C@@]1(O)C(=O)CO [DEX, Dexamethasone]
- body weight [1]: very significant decrease in body weight from day 5 onwards
- histological damage of colonic tissue [1]: failed to significantly reduce histological injury

Molecule: CCCCCCCCCCCCCCCC(=O)N[C@@H](CCC(=O)NCCCC[C@H](NC(=O)[C@H](C)NC(=O)[C@H](C)NC(=O)[C@H](CCC(N)=O)NC(=O)CNC(=O)[C@H](CCC(=O)O)NC(=O)[C@H](CC(C)C)NC(=O)[C@H](Cc1ccc(O)cc1)NC(=O)[C@H](CO)NC(=O)[C@H](CO)NC(=O)[C@@H](NC(=O)[C@H](CC(=O)O)NC(=O)[C@H](CO)NC(=O)[C@@H](NC(=O)[C@H](Cc1ccccc1)NC(=O)[C@@H](NC(=O)CNC(=O)[C@H](CCC(=O)O)NC(=O)[C@H](C)NC(=O)[C@@H](N)Cc1cnc[nH]1)[C@@H](C)O)[C@@H](C)O)C(C)C)C(=O)N[C@@H](CCC(=O)O)C(=O)N[C@@H](Cc1ccccc1)C(=O)N[C@H](C(=O)N[C@@H](C)C(=O)N[C@@H](Cc1c[nH]c2ccccc12)C(=O)N[C@@H](CC(C)C)C(=O)N[C@H](C(=O)N[C@@H](CCCNC(=N)N)C(=O)NCC(=O)N[C@@H](CCCNC(=N)N)C(=O)NCC(=O)O)C(C)C)[C@@H](C)CC)C(=O)O [GLP-1 analog, liraglutide]
- liver weight at termination vs chow fed mice (C57Bl/6J DIO male mice): not statistically significantly different
- body weight lost (C57Bl/6J DIO male mice; [6]): 25-30%
- body weight lost (average) (C57Bl/6J DIO male mice; [6]): 15 gram
- plasma cholesterol level vs HFD reference group (C57Bl/6J DIO male mice; p<0.01): statistically significantly lower

Molecule: C[C@]12C=CC(=O)C=C1CC[C@@H]1[C@@H]2[C@@H](O)C[C@@]2(C)[C@H]1CC[C@]2(O)C(=O)CO [Pred, Prednisolone]
- histological injury, proximal part of the colon [2]: failed to significantly reduce histological injury in the proximal part of the colon
- histological injury, distal colon ([2]; p<0.01): did reduce the injury in the distal colon
- DAI ([2]; p<0.05): significant inhibition of the DAI on day 9

- renal clearance [3]: 10 mL/min
- systemic availability after oral dosing [4]: not systemically available
Molecule: GIGDPVTCLKSGAICHPVFCPRRYKQIGTCGLPGTKCCKKP (disulfide 8-37, 15-30, 20-38) [hBD-2, human beta defensin 2]

Molecule: Glucagon-like peptide-1 [GLP-1]
- half-life in the circulation [5]: less than 2 minutes

Molecule: human neutrophil peptide 1 [HNP-1]
- glycogenolysis and gluconeogenesis (isolated hepatocytes): able to inhibit glycogenolysis and gluconeogenesis in isolated hepatocytes

Molecule: human neutrophil peptide 2 (CYCRIPACIAGERRYGTCIYQGRLWAFCC; listed as Homo sapiens) [HNP-2, alpha defensin produced by leucocytes]
- glycogenolysis and gluconeogenesis (isolated hepatocytes): able to inhibit glycogenolysis and gluconeogenesis in isolated hepatocytes
